{
  "source": "paper PMC9981719",
  "about": "“A novel designed membrane-active peptide for the control of foodborne Salmonella enterica serovar Typhimurium” (Scientific Reports, 2023)",
  "key": {"[1]": {"test_system": "human red blood cells (hRBCs)", "test": "Hemolysis assay", "format": "cell-based", "procedure": "The toxicity of all peptide derivatives toward human red blood cells (hRBCs) was investigated by evaluating the amount of hemoglobin released after exposure to peptide. Briefly, hRBCs (blood group O) were collected from a healthy adult volunteer into a heparin-coated polycarbonate tube. The sample was centrifuged for 5 min at 1000g to separate erythrocytes from buffy coat and plasma. The erythrocytes were washed at least three times with 1 × PBS and centrifuged for 5 min at 1000g or until supernatant was clear. The sample was resuspended in PBS to obtain 2% (v/v) hRBCs. To determine hRBC lysis, hRBC suspensions were incubated with equal volumes of various concentrations of peptide (0.98–250 µg/ml) for 1 h at 37 °C. Intact hRBCs were centrifuged for 5 min at 1000g, supernatants were transferred into new 96-well plates, and absorbance was measured at OD 405 nm. Untreated hRBCs (in PBS only) served as negative control (ODNegative) and hRBCs treated with 0.1% Triton X-100 as positive control (ODTritonX-100). Absorbance of samples was converted to percentage hemolysis according to the equation: Hemolysis%=ODSample-ODNegative/ODTriton X-100-ODNegative×100"}, "[2]": {"test_system": "S. Typhimurium ATCC 13311", "format": "cell-based, Salmonella enterica serovar Typhimurium", "conditions": "ATCC 13311, 24 h", "procedure": "Two-fold serial dilutions (0.98–250 μg/ml) of A11 with various concentrations of MgCl2 and NaCl (1 mM MgCl2, 5 mM MgCl2, 1% NaCl, 3% NaCl, 5% NaCl and 10% NaCl) were prepared and incubated at 37 °C for 60 min. Then, 50 μl of A11 in different salt concentrations were incubated with 50 μl of S. Typhimurium ATCC 13311 suspension (approximately 1 × 10^7 CFU/ml) at 37 °C with shaking. After 24 h, MICs were determined; all experiments were done in triplicate."}, "[3]": {"test_system": "S. Typhimurium ATCC 13311", "test": "Effect of temperature on MIC", "format": "cell-based, Salmonella enterica serovar Typhimurium", "procedure": "Two-fold serial dilutions (0.98–250 μg/ml) of A11 peptide were prepared and pre-incubated for 60 min at one of various temperatures (40 °C, 60 °C, 80 °C and 100 °C), and then cooled to 4 °C. After 30 min, 50 μl of heated peptide solutions were cultured with 50 μl of S. Typhimurium ATCC 13311 suspensions (approximately 1 × 10^7 CFU/ml). After 24 h incubation at 37 °C, MICs were determined; all experiments were done in triplicate."}, "[4]": {"test_system": "S. Typhimurium ATCC 13311", "test": "Effect of pH on MIC", "format": "cell-based, Salmonella enterica serovar Typhimurium", "procedure": "The pH of peptide solutions was adjusted (pH 3, 5, 7, 9 and 11) using 1 M acetic acid (CH3COOH) and 1 M sodium hydroxide (NaOH). Solutions adjusted to the different pHs without addition of A11 were used as controls. Subsequently, twofold serially diluted solutions (0.98–250 μg/ml) of A11 peptide were prepared with different pHs of peptide solution and incubated at 37 °C for 60 min, transferred to 1 × 10^7 CFU/ml of S. Typhimurium ATCC 13311 suspensions, then incubated at 37 °C with continuous shaking. After 24 h, MIC values were determined."}, "[5]": {"test_system": "4,5,12:i:- H1-100", "conditions": "checkerboard, TSB, 37 °C, 24 h", "procedure": "(§1) Effects of the combination of A11 with nisin against S. Typhimurium ATCC 13311 and 10 drug-resistant S. Typhimurium and S. enterica isolates were determined by the checkerboard titration method. Briefly, 10 drug-resistant S. Typhimurium were grown to a concentration of 1 × 10^7 CFU/ml in fresh TSB. Aliquots (25 µl) of nisin (final concentrations of 0.5–16 mg/ml) and A11 (final concentrations of 0.98–250 µg/ml) were added into 96-well plates containing 50 µl of bacterial suspension and cultured at 37 °C. […] ICA is the concentration required to produce the same effect as compound A when used alone, ICB is the concentration required to produce the same effect as compound B when used alone. The CI results were interpreted as follows: a CI of less than 1 indicates synergistic effect, a CI equal to 1 indicates additive effect, and a CI of more than 1 indicates antagonistic effect."}, "[6]": {"test_system": "4,5,12:i:- H2-089", "conditions": "checkerboard, TSB, 37 °C, 24 h", "procedure": "as §1"}, "[7]": {"test_system": "4,5,12:i:- H2-039", "conditions": "checkerboard, TSB, 37 °C, 24 h", "procedure": "as §1"}, "[8]": {"test_system": "S. Typhimurium ATCC13311", "conditions": "checkerboard, TSB, 37 °C, 24 h", "procedure": "as §1"}, "[9]": {"test_system": "S. Typhimurium H1-011", "conditions": "checkerboard, TSB, 37 °C, 24 h", "procedure": "as §1"}, "[10]": {"test_system": "S. Typhimurium H1-041", "conditions": "checkerboard, TSB, 37 °C, 24 h", "procedure": "as §1"}, "[11]": {"test_system": "S. Typhimurium H1-001", "conditions": "checkerboard, TSB, 37 °C, 24 h", "procedure": "as §1"}, "[12]": {"test_system": "L929 mouse fibroblast cells", "test": "In vitro cytotoxicity, MTT assay", "format": "cell-based", "conditions": "0.98–250 µg/ml, 24 h", "procedure": "The cytotoxicity of A11 was evaluated by the 3-(4,5 dimethylthiazol-2-yl)-2,5-diphenyltetrazolium bromide (MTT) assay. L929 mouse fibroblast cells were cultured in Dulbecco's Modified Eagle Medium (DMEM) supplemented with 1% (v/v) of 100 IU/ml penicillin/streptomycin and 10% (v/v) fetal bovine serum (FBS). The cells were maintained in an air atmosphere containing the 5% CO2 under high humidity at 37 °C. L929 cell lines were seeded into a sterile 96-well plate (1 × 10^4 cells/well) then incubated overnight and treated with different concentrations of A11 (0.98–250 µg/ml) for 24 h. Media were removed, and cultured cells were incubated with 100 µl of MTT solution (4 mg/ml) for 4 h at 37 °C. After removal of MTT solution, the formed formazan was dissolved in 100 µl DMSO. Absorbance was measured by microplate reader at 570 nm; untreated cells served as negative control and melittin-treated cells as a positive control. Cell viability was determined following this equation: Cell viability%=ODTreated/ODControl×100"}},
  "note": "“Also recorded” adds a separate entry of the source. Where no end group is shown, it is not given here.",
  "data": [
    {"substance": "WVKKVARKVVKIGRKVAR-NH2 [A11]", "values": [
      {"measurement": "hemolytic activity at the MIC concentration", "setting": "[1]", "result": "less than 2%"},
      {"measurement": "MIC in 1 mM MgCl2", "setting": "[2]", "result": 15.63, "unit": "µg/mL"},
      {"measurement": "MIC in 5 mM MgCl2", "setting": "[2]", "result": 31.25, "unit": "µg/mL"},
      {"measurement": "MIC in 1% NaCl", "setting": "[2]", "result": 15.63, "unit": "µg/mL"},
      {"measurement": "MIC in 3% NaCl", "setting": "[2]", "result": 125, "unit": "µg/mL"},
      {"measurement": "MIC in 5% NaCl", "setting": "[2]", "result": 250, "unit": "µg/mL"},
      {"measurement": "MIC in 10% NaCl", "setting": "[2]", "result": "> 250", "unit": "µg/mL"},
      {"measurement": "MIC after 40 °C", "setting": "[3]; peptide pre-incubated 60 min at 40 °C, cooled to 4 °C, then 24 h at 37 °C with bacteria, triplicate", "result": 15.63, "unit": "µg/mL"},
      {"measurement": "MIC after 60 °C", "setting": "[3]; peptide pre-incubated 60 min at 60 °C, cooled to 4 °C, then 24 h at 37 °C with bacteria, triplicate", "result": 15.63, "unit": "µg/mL"},
      {"measurement": "MIC after 80 °C", "setting": "[3]; peptide pre-incubated 60 min at 80 °C, cooled to 4 °C, then 24 h at 37 °C with bacteria, triplicate", "result": 15.63, "unit": "µg/mL"},
      {"measurement": "MIC after 100 °C", "setting": "[3]; peptide pre-incubated 60 min at 100 °C, cooled to 4 °C, then 24 h at 37 °C with bacteria, triplicate", "result": 15.63, "unit": "µg/mL"},
      {"measurement": "MIC after heat treatment, same value at each temperature", "setting": "[3]; various temperatures from 40 to 100 °C for 1 h", "result": 15.63, "unit": "µg/mL"},
      {"measurement": "MIC at pH 3", "setting": "[4]; peptide solution adjusted to pH 3, incubated 37 °C 60 min, then 24 h with 1 × 10^7 CFU/ml", "result": 125, "unit": "µg/ml"},
      {"measurement": "MIC at pH 5", "setting": "[4]; peptide solution adjusted to pH 5, incubated 37 °C 60 min, then 24 h with bacteria", "result": 31.25, "unit": "µg/ml"},
      {"measurement": "MIC at pH 7", "setting": "[4]; peptide solution adjusted to pH 7, incubated 37 °C 60 min, then 24 h with bacteria", "result": 15.63, "unit": "µg/ml"},
      {"measurement": "MIC at pH 9", "setting": "[4]; peptide solution adjusted to pH 9, incubated 37 °C 60 min, then 24 h with bacteria", "result": 15.63, "unit": "µg/ml"},
      {"measurement": "MIC at pH 11", "setting": "[4]; peptide solution adjusted to pH 11, incubated 37 °C 60 min, then 24 h with bacteria", "result": 31.25, "unit": "µg/ml"},
      {"measurement": "MIC (alone)", "setting": "[5]", "result": 62.5, "unit": "µg/mL"},
      {"measurement": "MIC (alone)", "setting": "[6]", "result": 62.5, "unit": "µg/mL"},
      {"measurement": "MIC (alone)", "setting": "[7]", "result": 62.5, "unit": "µg/mL"},
      {"measurement": "MIC (alone)", "setting": "[8]", "result": 15.63, "unit": "µg/mL"},
      {"measurement": "MIC (alone)", "setting": "[9]", "result": 62.5, "unit": "µg/mL"},
      {"measurement": "MIC (alone)", "setting": "[10]", "result": 125, "unit": "µg/mL"},
      {"measurement": "MIC (alone)", "setting": "[11]", "result": 62.5, "unit": "µg/mL"},
      {"measurement": "cytotoxicity toward L929 cells (cell viability, MTT)", "setting": "[12]", "result": "no cytotoxic activity; also recorded: no cytotoxic effect"}
    ]}
  ]
}
